Converted amounts (≈) assume the structure as drawn.
How the values were obtained:
[1] = test system: ANKA strain of P. berghei; assay: single dose STI in vivo screen in infected mice; parameters: species or system Plasmodium berghei; conditions: for Activity (%) po / Survival (days) po: single 10 mg/kg po in 3% ethanol and 7% Tween 80; for Activity (%) po / Activity (%) sc / Activity (%) SSVpo: mice; for Activity (%) sc / Survival (days) sc: single 10 mg/kg sc in 3% ethanol and 7% Tween 80; for Activity (%) SSVpo: single po dose in standard suspending vehicle (SSV); for Survival (days) po / Survival (days) sc / Survival (days) SSVpo: untreated control 5.6 ± 0.3; for Survival (days) SSVpo: single po dose in SSV
Summary of the method: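 Groups of 3-5 Moro SPF or NMRI mice infected with the ANKA strain of P. berghei received a single dose of trioxolane on day one post-infection. The compound was given in 3% ethanol and 7% Tween 80 or in SSV (0.5% w/v CMC, 0.5% v/v benzyl alcohol, 0.4% v/v Tween 80, 0.9% w/v sodium chloride in water). Antimalarial activity was scored as percent reduction in parasitemia on day three and as survival time versus untreated controls. Survival to day 30 counted as cure.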

[2] = test system: Schistosoma mansoni adult schistosomes (49-day-old); assay: effect on adult schistosomes (49-day-old) in mice; assay type: in vivo; conditions: for % reduction of adult worms growth at day 49 after per os application of 400 mg/kg, TWR (%) / adult worms at day 49, per os 400 mg/kg, DEAD WORM (%): single 400 mg/kg per os
Procedure: Mice were infected with 100 Schistosoma mansoni cercariae […]. Each group was treated per os with OZ compounds at single doses of 200, 400, and 600 mg/kg. […] All groups were killed 4 weeks after treatment and the liver and intestine were removed and separated. The liver and intestine were compressed and alive male and female worms could be seen and counted.

[3] = test system: P. falciparum NF54 strain (sensitive to standard antimalarials); assay: semiautomated microdilution assay, [3H]-hypoxanthine incorporation, NF54 strain; assay type: cell-based, Plasmodium falciparum; conditions: NF54 strain, 72 h incubation
Summary of the method: (§1)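 IC50 values come from logit regression of semiautomated microdilution data obtained on intraerythrocytic parasites drawn from asynchronous cultures.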

[4] = test system: Schistosoma mansoni 21-day-old schistosomules; assay: effect on 21-day-old schistosomules in mice; assay type: in vivo; conditions: single 200 mg/kg per os, female mice
Procedure: All groups were killed 4 weeks after treatment and the liver and intestine were removed and separated. The liver and intestine were compressed and alive male and female worms could be seen and counted. The effect of the compounds was evaluated by mean total and female worm burden.

[5] = test system: P. falciparum K1 strain (Thailand resistant to chloroquine); assay: semiautomated microdilution assay, [3H]-hypoxanthine incorporation, K1 strain; assay type: cell-based, Plasmodium falciparum; conditions: K1 strain, 72 h incubation
Summary of the method: as §1

[6] = percent reduction in parasitemia day 3 post-infection, single 3 mg/kg po in SSV
[7] = percent reduction in parasitemia day 3 post-infection

| Structure (SMILES) | Activity (%) 3 mg/kg SSV po [1, 6] | Activity (%) 10 mg/kg SSV po ([1]; percent reduction in parasitemia day 3 post-infection, single 10 mg/kg po in SSV) | Survival (days) 3 mg/kg SSV po ([1]; single 3 mg/kg po in SSV) | Survival (days) 10 mg/kg SSV po ([1]; single 10 mg/kg po in SSV) | % reduction of adult worms growth at day 49 after per os application of 400 mg/kg, TWR (%) [2] | adult worms at day 49, per os 400 mg/kg, DEAD WORM (%) [2] | IC50 (ng/ml) NF54 [3] | % reduction of schistosomule growth at day 21 after per os application of 200 mg/kg, FWR (%) [4] | % reduction of schistosomule growth at day 21 after per os application of 200 mg/kg, TWR (%) [4] | IC50 (ng/ml) K1 [5] | Activity (%) po [1, 7] | Activity (%) sc [1, 7] | Activity (%) SSVpo [1, 7] | Survival (days) po [1] | Survival (days) sc [1] | Survival (days) SSVpo [1] | % reduction of adult worms growth at day 49 after per os application of 600 mg/kg, TWR (%) ([2]; single 600 mg/kg per os) | adult worms at day 49, per os 600 mg/kg, DEAD WORM (%) ([2]; single 600 mg/kg per os) |
| --- | --- | --- | --- | --- | --- | --- | --- | --- | --- | --- | --- | --- | --- | --- | --- | --- | --- | --- |
| O=C(O)C(=O)NC[C@H]1CC[C@]2(CC1)OO[C@]1(O2)C2CC3CC(C2)CC1C3 [OZ360] | 0% | 38% | 6.2 days | 6.8 days | 0/0% | 0/0% | 59 ng/mL (≈ 0.161 µM) | 13% | 17% | 58 ng/mL (≈ 0.159 µM) | – | – | – | – | – | – | – | – |
| CON=C1CCC2(CC1)OOC1(O2)C2CC3CC(C2)CC1C3 (centres unmarked) [OZ15] | – | – | – | – | 0% | 10% | 1.0 ng/mL (≈ 0.00325 µM) | 70% | 63% | 0.60 ng/mL (≈ 0.00195 µM) | 99.8% | 99.9% | 88% | 7.4 days | 8.2 days | 6.8 days | – | – |
| CC(C)(C)C1CCC2(CC1)OOC1(O2)C2CC3CC(C2)CC1C3 (centres unmarked) [OZ18] | – | – | – | – | 0/0% | 0/0% | 84 ng/mL (≈ 0.262 µM) | 9% | 12% | 63 ng/mL (≈ 0.197 µM) | 0/NA/0% | 0/NA/0% | – | 5.0 days | 5.3 days | – | – | – |
| Oc1ccc([C@H]2CC[C@]3(CC2)OOC2(O3)C3CC4CC(C3)CC2C4)cc1 (some centres unmarked) [OZ288] | 82% | – | – | 11.0 days | 52% | 45% | 2.7 ng/mL (≈ 0.00757 µM) | 96% | 95% | 1.7 ng/mL (≈ 0.00477 µM) | – | – | – | – | – | – | – | – |
| O=C(O)CNC[C@H]1CC[C@]2(CC1)OO[C@]1(O2)C2CC3CC(C2)CC1C3 [OZ309] | 86% | – | – | 8.8 days | 19% | 17% | 17 ng/mL (≈ 0.0484 µM) | 100% | 97% | 11 ng/mL (≈ 0.0313 µM) | – | – | – | – | – | – | – | – |
| O=C1C2C3CC4C5C3C1C5C1(OOC3(O1)C1CC5CC(C1)CC3C5)C42 (centres unmarked) [OZ14] | – | – | – | – | 0/0% | 0/0% | > 100 ng/mL | 0% | 7% | 91 ng/mL (≈ 0.267 µM) | 23% | 96% | – | 6.0 days | 7.7 days | – | – | – |
| CCCC1CCC2(CC1)OOC1(O2)C2CC3CC(C2)CC1C3 (centres unmarked) [OZ25] | – | – | – | – | 46% | 34% | 2.1 ng/mL (≈ 0.00685 µM) | 84% | 86% | 1.1 ng/mL (≈ 0.00359 µM) | 99.9% | 99.97% | 96% | 8.4 days | 16.5 days | 7.2 days | – | – |
| O=[N+]([O-])c1ccc(NN=C2CCC3(CC2)OOC2(O3)C3CC4CC(C3)CC2C4)c([N+](=O)[O-])c1 (centres unmarked) [OZ29] | – | – | – | – | 0/0% | 0/0% | 13 ng/mL (≈ 0.0284 µM) | 20% | 28% | 9.7 ng/mL (≈ 0.0212 µM) | 0/NA/0% | 0/NA/0% | – | 5.0/NA/5.0 days | 5.0/NA/5.0 days | – | – | – |
| CCOC(=O)N1CCC2(CC1)OOC1(O2)C2CC3CC(C2)CC1C3 (centres unmarked) [OZ23] | – | – | – | – | 0% | 4% | 0.57 ng/mL (≈ 0.00169 µM) | 84% | 90% | 0.29 ng/mL (≈ 0.000859 µM) | 99.5% | 99.9% | 99.34% | 7.7 days | 8.9 days | 7.0 days | – | – |
| C1COC2(CCC3(CC2)OOC2(O3)C3CC4CC(C3)CC2C4)O1 (centres unmarked) [OZ10] | – | – | – | – | 28% | 13% | 0.67 ng/mL (≈ 0.00208 µM) | 73% | 66% | 0.40 ng/mL (≈ 0.00124 µM) | 99.6% | 99.98% | – | 8.9 days | 10.5 days | – | 21% | 23% |
| O=C1CCC2(CC1)OOC1(CCCCCCCCCCC1)O2 [OZ21] | – | – | – | – | 0/0% | 0/0% | 25 ng/mL (≈ 0.0805 µM) | 20% | 18% | 14 ng/mL (≈ 0.0451 µM) | 0/NA/0% | 0/NA/0% | – | 5.0 days | 6.0 days | – | – | – |
| O=C1CN(C[C@H]2CC[C@]3(CC2)OOC2(O3)C3CC4CC(C3)CC2C4)CCN1 (some centres unmarked) [OZ285] | 72% | – | – | 8.7 days | 17% | 22% | 1.8 ng/mL (≈ 0.00478 µM) | 85% | 86% | 1.3 ng/mL (≈ 0.00345 µM) | – | – | – | – | – | – | – | – |
